Results on two compounds are retold here after patent US20130150327A1, “COMPOSITION FOR PREVENTING HAIR LOSS OR STIMULATING HAIR GROWTH” (Biopid Corporation, priority 2010, published 2013).

The structures appear in SMILES notation.

The subject of one assay is C3H/HeNCrljBgi mice. Nature of the assay: Animal Test 3: organic acid effect and soy extracted phospholipid effect, hair growth area. It counts as in vivo, mouse. The settings on record: 2.5 weeks, twice a day, phospholipids 20 mg/ml, minoxidil 5% applied to all groups except Group 1 30 minutes before the composition.
The test system of assay [1] is mice with DNFB-induced allergic dermatitis. Nature of the assay: Animal Test 1: hair follicle growth in back skin tissue of mice with DNFB-induced allergic dermatitis. Format: in vivo, mouse. The conditions noted are these: comparators: Tacrolimus ointment (FIG. 5), 0.1% dexamethasone in ethanol (FIG. 6), twice a day, 10 days.
Source text: In order to prepare animal models with an atopic dermatitis, or a contact dermatitis and allergic dermatitis, After 1 week of sensitizing with DNFB, DNFB was applied to the backs of mice total 10 times per 2 weeks to induce an artificial allergic dermatitis. […] Since applying DNFB five times, the composition of the present invention, Tacrolimus ointment (trade name, Protopic, Astella Pharma Korea, Inc.), and dexamethasone (Sigma Chem. Co. USA, 0.1% solution dissolved in ethanol) were applied to the backs of mice occurred with inflammation twice a day in the amount of 60 ml, respectively. At 10 days after applying, the mice tissues were collected to test experiments.

Procedure for C3H/HeNCrljBgi mice: In addition, the composition was prepared by using soy lecithin (phospholipid extracted from soy, #86015-1201, Junsei Chemical, Japan), and then effect of the composition on hair growth was compared. C3H/HeNCrljBgi species of 7 ages of weeks (Orient Bio, Sungnam, Korea) were purchased as the experimental mice, and then used for the test. […] The composition of the present invention was applied for 2.5 weeks, and 60 ml of the composition was applied on the backs of the hairs-removed mice twice a day. The concentration of the applied phospholipids was 20 mg/ml. As a measurement of hair growth in the mice, the pictures of the mice of each experimental group were taken, respectively, and then the ratio of the hair growth area in the hairs-removed area was calculated.

In the case of `Nc1cc(N2CCCCC2)nc(N)[n+]1[O-]` [Minoxidil, minoxidil], the “Hair growth area (ratio of the hair growth area in the hairs-removed area)” value in the assay with C3H/HeNCrljBgi mice turned out to be 10.2. Take `C=CC[C@@H]1/C=C(\C)C[C@H](C)C[C@H](OC)[C@H]2O[C@@](O)(C(=O)C(=O)N3CCCC[C@H]3C(=O)O[C@H](/C(C)=C/[C@@H]3CC[C@@H](O)[C@H](OC)C3)[C@H](C)[C@@H](O)CC1=O)[C@H](C)C[C@@H]2OC` [Tacrolimus, tacrolimus]: the “hair follicle growth in mice tissues” value in assay [1] is “new hair follicles were formed”.
